*1 amine or outer side, *2 acyl side, *3 side chain or, on linkers, in order; H or OH if unused. Where a SMILES comes first, the peptide text is derived from it. Bridges are numbered along the chain shown (N, C = ends). The star is where a group is joined. pNA = O=[N+]([O-])c1ccc(N*)cc1; Suc = O=C(CCC(=O)[*:2])[*:1]
Experiments:
[1] = biological target: T1, chymotrypsin (Bos taurus, UniProt P00766); test: Determination of the Michaelis constant Km of chymotrypsin hydrolyzing AAPFpNA; type: biochemical; conditions: R^2=0.9988, pH 7.8, 37° C.
Procedure: (1) Added a total 198 μL of reaction buffer (20 mM CaCl2, 50 mM Tris-HCl (pH 7.8)) into the 96 well plate, followed by preheating at 37° C. for 15 min. Then added 2 μL of different concentrations of substrates (p-Nitroanilide, pNA, 0.5% in DMSO), and mixed by centrifugation at 500 rpm for 1 min. Finally, the plate was incubated at 37° C. for 20 min, and the absorbance value at 405 nm was measured. In the 200 μL of reaction system, the final concentrations of pNA were 0, 0.025, 0.05, 0.075, 0.1, 0.125, 0.15, 0.25, and 0.3 mM, respectively. Make three repetitions for each concentration and plot the OD 405 nm value with pNA concentration to obtain the standard curve. (2) Added a total 190 μL of reaction buffer (20 mM CaCl2, 50 mM Tris-HCl (pH 7.8)) and 8 μL of 0.75 μM chymotrypsin into the 96 well plate, followed by preheating at 37° C. for 5 min. Then added 2 μL of different concentrations of substrates (AAPFpNA, dissolved in DMSO), and mixed by centrifugation at 500 rpm for 1 min. Finally, the plate was incubated at 37° C. for 20 min, and the absorbance value at 405 nm was measured. In the 200 μL of reaction system, the final concentrations of AAPFpNA were 0, 0.125, 0.25, 0.285, 0.33, 0.4, and 0.5 mM, respectively. […]
Using a certain concentration of chymotrypsin to catalyze different concentrations of AAPFpNA to produce pNA, and the absorbance value of OD 405 nm was measured.

[2] = biological target: T1, chymotrypsin; test: Determination of enzyme inhibitory activity against chymotrypsin (substrate AAPFpNA, OD 405 nm); type: biochemical; conditions: for IC50: chymotrypsin 30 nM, AAPFpNA 0.5 mM, pH 7.8, 37° C.; for remaining activity at 0.001 µM: peptide 0.001 μM; for remaining activity at 0.01 µM: peptide 0.01 μM; for remaining activity at 0.1 µM: peptide 0.1 μM; for remaining activity at 0.2 µM: peptide 0.2 μM; for remaining activity at 1 µM: peptide 1 μM; for remaining activity at 10 µM: peptide 10 μM; for remaining activity at 100 µM: peptide 100 μM; for remaining activity at 0.5 µM: peptide 0.5 μM; for remaining activity at 0.0001 µM: peptide 0.0001 μM; for remaining activity at 0.02 µM: peptide 0.02 μM; for remaining activity at 0.04 µM: peptide 0.04 μM; for remaining activity at 0.08 µM: peptide 0.08 μM
Procedure: The substrates N-succinyl-Ala-Ala-Pro-Phe-p-nitroaniline (AAPFpNA) is used in competitive binding reaction to determine the inhibitory activities against α -chymotrypsin. Experiments for a-chymotrypsin was measured in 20 mM CaCl2, 50 mM Tris-HCl buffer (pH 7.8). The concentration of the peptide was measured using optical density (OD) at 280 nm. The Michaelis constant (Km) of the enzyme hydrolysis substrate is calculated from the initial rate of substrate hydrolysis at 405 nm. The absorbance value of the substrate was measured at 405 nm after complete hydrolysis. All data were processed using nonlinear regression.
(1) Added a total 190 μL of reaction buffer (20 mM CaCl2, 50 mM Tris-HCl (pH 7.8)), different concentrations of anti-chymorypsin peptides (CHs) into the pre-cold 96 well plate, followed by preheating at 37° C. for 5 min and centrifugated at 500 rpm for 1 min and allowed to stand for 4 minutes. Then added 8 μL of 750 nM chymotrypsin and incubated at 37° C. for 10 min, and centrifugated at 500 rpm for 1 min and allowed to stand for 9 minutes. Finally, added 2 μL of 50 mM AAPFpNA, and mixed by centrifugation at 500 rpm for 1 min. The plate was incubated at 37° C. for 90 min, and the absorbance value at 405 nm was measured. Three repetitions were made, and only reaction buffer and substrate were added in the blank control as the minimum absorption value (Min OD 405 nm); Only reaction buffer, enzyme and substrate were added in the negative control as the maximum absorption value (Max OD 405 nm).
(2) In the 200 μL of reaction system, the final concentrations of chymotrypsin and AAPFpNA were 30 nM and 0.5 mM, respectively.
Plotted the residual activity of enzyme with […] to obtain the half inhibitory concentration (IC50) of anti-chymorypsin peptides (CHs). Then, substituted it into the formula […]/(1+S/Km) (S, IC50, and Km were substrate concentration, half inhibitory concentration, and Michaelis constant, respectively) to obtain the inhibition constant Ki of anti-chymorypsin peptides (CHs).

[3] = test system: Normal ICR mice; test: In vivo hypoglycemic activity, subcutaneous administration; conditions: for Glucose (mean ± sd): subcutaneous, 0.9 mg/kg
Procedure: Tail tip blood samples were collected at 40 min and 90 min after administration, and blood glucose levels were measured using glucose oxidase method to calculate blood glucose values at each blood sampling time point.

[4] = read-out: Residual activity of chymotrypsin

Row | Molecule | Ki [2] [µM] | IC50 [2] [µM] | remaining activity at 0.001 µM [2, 4] [%] | remaining activity at 0.01 µM [2, 4] [%] | remaining activity at 0.1 µM [2, 4] [%] | remaining activity at 0.2 µM [2, 4] [%] | remaining activity at 1 µM [2, 4] [%] | remaining activity at 10 µM [2, 4] [%] | remaining activity at 100 µM [2, 4] [%] | further results
1 | C[C@H](NC(=O)CCC(=O)O)C(=O)N[C@@H](C)C(=O)N1CCC[C@H]1C(=O)N[C@@H](Cc1ccccc1)C(=O)Nc1ccc([N+](=O)[O-])cc1 [AAPFpNA, N-succinyl-Ala-Ala-Pro-Phe-p-nitroaniline] (Suc-AAPF-pNA) | – | – | – | – | – | – | – | – | – | Km [1]: 380 µM
2 | CC[C@H](C)[C@@H]1NC(=O)[C@H](CO)NC(=O)[C@H](Cc2ccc(O)cc2)NC(=O)[C@H]([C@@H](C)O)NC(=O)[C@@H](NC(=O)[C@@H](N)Cc2ccccc2)CSSC[C@@H](C(=O)N[C@@H](Cc2ccc(O)cc2)C(=O)N[C@@H](C)C(=O)O)NC(=O)[C@H](CCC(N)=O)NC(=O)[C@@H]2CCCN2C(=O)[C@@H]2CCCN2C1=O [CH34] (H-FCTYSIPPQCYA-OH; disulfide 2-10; C-terminus assumed) | 0.16 | 0.37 | 102.3 ± 0.8 | 104.1 ± 0.5 | 104.8 ± 0.6 | 78.5 ± 2.5 | 17.8 ± 0.9 | 1.2 ± 0.1 | 0.1 | remaining activity at 0.4 µM ([2]; peptide 0.4 μM, read-out: Residual activity of chymotrypsin): 45.5 ± 1.5%; remaining activity at 0.75 µM ([2]; peptide 0.75 μM, read-out: Residual activity of chymotrypsin): 24.5 ± 0.9%
3 | CC[C@H](C)[C@@H]1NC(=O)[C@@H]2CCCN2C(=O)[C@@H]2CCCN2C(=O)[C@H]([C@@H](C)CC)NC(=O)[C@H](CO)NC(=O)[C@H](Cc2ccc(O)cc2)NC(=O)[C@H]([C@@H](C)O)NC(=O)[C@H](C)NC(=O)[C@H](CCCNC(=N)N)NC(=O)[C@H](CCCCN)NC(=O)[C@@H](N)CSSC[C@@H](C(=O)N[C@@H](Cc2ccccc2)C(=O)O)NC1=O [CH69] (H-CKRATYSIPPICF-OH; disulfide 1-12; C-terminus assumed) | 0.13 | 0.3 | 101.7 ± 0.3 | 101 ± 0.2 | 100 ± 2.5 | 78 ± 4 | 12.1 ± 1.1 | 1.3 ± 0.6 | 0 | remaining activity at 0.3 µM ([2]; peptide 0.3 μM, read-out: Residual activity of chymotrypsin): 51.5 ± 5.8%; remaining activity at 0.5 µM [2, 4]: 20.1 ± 6.1%
4 | CC[C@H](C)[C@@H]1NC(=O)[C@@H]2CCCN2C(=O)[C@@H]2CCCN2C(=O)[C@H]([C@@H](C)CC)NC(=O)[C@H](CO)NC(=O)[C@H](Cc2ccccc2)NC(=O)[C@H]([C@@H](C)O)NC(=O)[C@@H](NC(=O)[C@H](CCCNC(=N)N)NC(=O)CN)CSSC[C@@H](C(=O)N[C@@H](Cc2ccccc2)C(=O)N2CCC[C@H]2C(=O)N[C@@H](CC(=O)O)C(=O)O)NC1=O [CH54] (H-GRCTFSIPPICFPD-OH; disulfide 3-11; C-terminus assumed) | 0.01 | 0.03 | 101.7 ± 0.6 | 100 ± 2.9 | 13.8 ± 3.3 | – | 0.4 ± 0.2 | -0.1 | – | remaining activity at 0.0001 µM [2, 4]: 100.6 ± 0.9%; remaining activity at 0.02 µM [2, 4]: 68.8 ± 4%; remaining activity at 0.04 µM [2, 4]: 34.2 ± 3.9%; remaining activity at 0.08 µM [2, 4]: 15.2 ± 1.9%
5 | CC[C@H](C)[C@@H]1NC(=O)[C@@H]2CCCN2C(=O)[C@@H]2CCCN2C(=O)[C@H]([C@@H](C)CC)NC(=O)[C@H](CO)NC(=O)[C@H](Cc2ccc(O)cc2)NC(=O)[C@H]([C@@H](C)O)NC(=O)[C@@H](NC(=O)[C@@H](N)[C@@H](C)O)CSSC[C@@H](C(=O)N[C@@H](CC(N)=O)C(=O)O)NC1=O [CH63] (H-TCTYSIPPICN-OH; disulfide 2-10; C-terminus assumed) | 1.32 | 3.05 | – | – | – | – | – | – | – | –
6 | CC[C@H](C)[C@@H]1NC(=O)[C@@H]2CCCN2C(=O)[C@@H]2CCCN2C(=O)[C@H]([C@@H](C)CC)NC(=O)[C@H](CO)NC(=O)[C@H](Cc2ccc(O)cc2)NC(=O)[C@H]([C@@H](C)O)NC(=O)[C@H](C)NC(=O)[C@H](CCCNC(=N)N)NC(=O)[C@H](CCC(=O)O)NC(=O)[C@@H](N)CSSC[C@@H](C(=O)N[C@@H](Cc2ccccc2)C(=O)O)NC1=O [CH70] (H-CERATYSIPPICF-OH; disulfide 1-12; C-terminus assumed) | 0.11 | 0.25 | 100 ± 7.6 | 106 ± 1.8 | 105.8 ± 0.9 | 55 ± 7.2 | 7.7 ± 0.2 | 0.7 ± 0.3 | -0.1 ± 0.1 | remaining activity at 0.15 µM ([2]; peptide 0.15 μM, read-out: Residual activity of chymotrypsin): 96.5 ± 8.5%; remaining activity at 0.5 µM [2, 4]: 26 ± 2.5%
7 | CC[C@H](C)[C@@H]1NC(=O)[C@@H]2CCCN2C(=O)[C@@H]2CCCN2C(=O)[C@H]([C@@H](C)CC)NC(=O)[C@H](CO)NC(=O)[C@H](Cc2ccc(O)cc2)NC(=O)[C@H]([C@@H](C)O)NC(=O)[C@@H](NC(=O)[C@H](CCCNC(=N)N)NC(=O)CN)CSSC[C@@H](C(=O)N[C@@H](Cc2ccccc2)C(=O)N2CCC[C@H]2C(=O)O)NC1=O [CH56] (H-GRCTYSIPPICFP-OH; disulfide 3-11; C-terminus assumed) | 0.27 | 0.62 | – | – | – | – | – | – | – | IC50 reduced (fold) ([2]; relative to CH55): 30 times
8 | CC[C@H](C)[C@@H]1NC(=O)[C@@H]2CCCN2C(=O)[C@@H]2CCCN2C(=O)[C@H]([C@@H](C)CC)NC(=O)[C@H](CO)NC(=O)[C@H](Cc2ccc(O)cc2)NC(=O)[C@H]([C@@H](C)O)NC(=O)[C@@H](NC(=O)[C@H](CCCNC(=N)N)NC(=O)CN)CSSC[C@@H](C(=O)N[C@@H](Cc2ccccc2)C(=O)N2CCC[C@H]2C(=O)N[C@@H](CC(=O)O)C(=O)O)NC1=O [CH55] (H-GRCTYSIPPICFPD-OH; disulfide 3-11; C-terminus assumed) | 0.0086 | 0.02 | 101.6 ± 0.9 | – | 8 ± 2.4 | – | 0.9 ± 0.1 | 0.1 | – | remaining activity at 0.0001 µM [2, 4]: 102.1 ± 1%; remaining activity at 0.015 µM ([2]; peptide 0.015 μM, read-out: Residual activity of chymotrypsin): 68.1 ± 3.7%; remaining activity at 0.02 µM [2, 4]: 45.8 ± 10%; remaining activity at 0.04 µM [2, 4]: 21.8 ± 4.2%; remaining activity at 0.08 µM [2, 4]: 11.6 ± 1.2%
9 | lispro: insulin analogue lispro synthesized in the present invention | – | – | – | – | – | – | – | – | – | hypoglycemic activity (in words) ([3]; subcutaneous administration, compared with a positive control): good hypoglycemic activity; Glucose (mean ± sd) ([3]; 0 min): 96.7 ± 24.8 mg/dL; Glucose (mean ± sd) ([3]; 40 min): 70.3 ± 6.2 mg/dL; Glucose (mean ± sd) ([3]; 90 min): 72.9 ± 15.6 mg/dL

— patent US20260242438A1 (INSTITUTE OF MATERIA MEDICA, CHINESE ACADEMY OF MEDICAL …, priority 2022, published 2026)
